Assays:
P12-Ichikawa [1] = test: cell viability relative to DMSO control; higher = less cytotoxic; settings: HPLM + 10% dialyzed FBS, 48 h
Procedure, shortened: (§1)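 Library compounds in DMSO were pin-dosed in an 11-point threefold series (47 μM to 0.79 nM) onto leukemia cells in 1536-well plates (5 μl). Plates held 500 cells/well of NOMO1 or SEM or 1000 cells/well of P12-Ichikawa, each adapted for at least four passages in each medium. Luminescence was read with CellTiter-Glo One after 48 h at 37°C. Viability means the per-plate percentage relative to DMSO wells, using cell-free wells as background.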

SEM cells [2] = test: as above; settings: 48 h
Procedure, shortened: as §1

NOMO1 = test: AUC of viability dose-response curve (% viability x log10 dose units); higher = less sensitive; settings: 48 h
Procedure, shortened: (§2)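 Area under the curve was integrated by trapezoidal rule from a log-logistic fit of normalised viability, with curves exceeding full viability scaled and quality-control failures removed. The fit had four parameters over log10 doses. Viability came from CellTiter-Glo One luminescence, normalised per plate to DMSO and cell-free wells, after leukemia cells adapted to each medium (500 or 1000 cells/well, 1536-well plates) were exposed to library compounds in DMSO for 48 h at 37°C. The 11 threefold doses ran from 47 μM to 0.79 nM.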

P12-Ichikawa [3] = test: as above; settings: 48 h
Procedure, shortened: as §2

SEM cells [4] = test: as above; settings: 48 h
Procedure, shortened: as §2

CC(C)N(CC[C@H](c1ccccc1)c1cc(CO)ccc1O)C(C)C
Settings	AUC of viability dose-response curve	cell viability [%]
NOMO1, HPLM + 10% dialyzed FBS	455	–
NOMO1, RPMI 5 mM glucose + 10% FBS	468	–
NOMO1, RPMI 5 mM glucose + 10% dialyzed FBS	462	–
P12-Ichikawa [1], 0.000781 µM	–	127
P12-Ichikawa [1], 0.00234 µM	–	123
P12-Ichikawa [1], 0.00702 µM	–	120
P12-Ichikawa [1], 0.0211 µM	–	126
P12-Ichikawa [1], 0.0632 µM	–	139
P12-Ichikawa [1], 0.19 µM	–	137
P12-Ichikawa [1], 0.569 µM	–	140
P12-Ichikawa [1], 1.71 µM	–	138
P12-Ichikawa [1], 5.12 µM	–	129
P12-Ichikawa [1], 15.4 µM	–	128
P12-Ichikawa [1], 46.1 µM	–	135
P12-Ichikawa [3], HPLM + 10% dialyzed FBS	464	–
P12-Ichikawa [3], RPMI 5 mM glucose + 10% FBS	461	–
P12-Ichikawa [3], RPMI 5 mM glucose + 10% dialyzed FBS	466	–
SEM cells [4], HPLM + 10% dialyzed FBS	462	–
SEM cells [4], RPMI 5 mM glucose + 10% FBS	473	–
SEM cells [4], RPMI 5 mM glucose + 10% dialyzed FBS	461	–

SEM cells [2], HPLM + 10% dialyzed FBS
Settings	cell viability [%]
0.000781 µM	106
0.00234 µM	118
0.00702 µM	125
0.0211 µM	141
0.0632 µM	131
0.19 µM	139
0.569 µM	129
1.71 µM	134
5.12 µM	151
15.4 µM	135
46.1 µM	119

COc1cc(OC)c(OC)cc1C=O
cell viability [%], SEM cells [2]
Settings	HPLM + 10% dialyzed FBS	RPMI 5 mM glucose + 10% dialyzed FBS
0.000781 µM	98	113
0.00234 µM	111	96.5
0.00702 µM	111	130
0.0211 µM	109	144
0.0632 µM	108	148
0.19 µM	113	146
0.569 µM	88.7	94
1.71 µM	58.6	54
5.12 µM	122	126
15.4 µM	133	162
46.1 µM	139	130

AUC of viability dose-response curve
Settings	NOMO1	P12-Ichikawa [3]	SEM cells [4]
HPLM + 10% dialyzed FBS	467	455	439
RPMI 5 mM glucose + 10% FBS	474	440	450
RPMI 5 mM glucose + 10% dialyzed FBS	469	429	460

CC(=O)NCCC(=O)N[C@@H](CCC(N)=O)C(=O)N[C@@H](CO)C(=O)N[C@@H](CCC(N)=O)C(=O)N[C@@H](CCC(N)=O)C(=O)N[C@H](C(=O)N[C@@H](Cc1ccccc1)C(=O)N[C@]1(C)CCCCCC/C=C\CCC[C@@](C)(C(=O)N[C@@H](CCC(N)=O)C(=O)N[C@@H](CC(N)=O)C(N)=O)NC(=O)[C@H](CC(C)C)NC(=O)[C@H](CC(C)C)NC(=O)[C@@H](CCCNC(=N)N)NC(=O)[C@H](Cc2c[nH]c3ccccc23)NC(=O)[C@H](CC(C)C)NC(=O)[C@H](CC(N)=O)NC1=O)[C@H](C)O
AUC of viability dose-response curve
Settings	NOMO1	P12-Ichikawa [3]	SEM cells [4]
HPLM + 10% dialyzed FBS	456	461	376
RPMI 5 mM glucose + 10% FBS	451	460	321
RPMI 5 mM glucose + 10% dialyzed FBS	426	437	346

O=C(O)COCCN1CCN(C(c2ccccc2)c2ccc(Cl)cc2)CC1 (stereo unspecified)
cell viability [%], SEM cells [2]
Settings	HPLM + 10% dialyzed FBS	RPMI 5 mM glucose + 10% FBS
0.000781 µM	126	117
0.00234 µM	125	118
0.00702 µM	117	113
0.0211 µM	130	108
0.0632 µM	140	116
0.19 µM	132	95.4
0.569 µM	128	119
1.71 µM	123	91
5.12 µM	111	113
15.4 µM	119	112
46.1 µM	122	102

AUC of viability dose-response curve
Settings	NOMO1	P12-Ichikawa [3]	SEM cells [4]
HPLM + 10% dialyzed FBS	463	461	465
RPMI 5 mM glucose + 10% FBS	459	461	453
RPMI 5 mM glucose + 10% dialyzed FBS	451	455	469

C[C@H]1CC2C3CCC/4=C/C(=O)/C=C\[C@]4(C)[C@@]3(F)[C@@H](O)C[C@]2(C)[C@@]1(O)C(=O)CO (stereo partly specified)
AUC of viability dose-response curve
Settings	NOMO1	P12-Ichikawa [3]	SEM cells [4]
HPLM + 10% dialyzed FBS	420	374	372
RPMI 5 mM glucose + 10% FBS	450	342	356
RPMI 5 mM glucose + 10% dialyzed FBS	466	330	348
